Reference: patent US20240287070A1, “FUSED HETEROCYCLIC DERIVATIVES” (Janssen Sciences Ireland Unlimited Company, priority 2021, published 2024)

Legend:
[1] = test system: HBV (HepG2.117 cell line, inducibly HBV producing); assay: Anti-HBV activity, intracellular HBV DNA by real-time PCR in HepG2.117 cell line; assay type: cell-based, hepatitis B virus; settings: HepG2.117 cells, 3 days of treatment
Experimental: The anti HBV activity was measured using the HepG2.117 cell line, a stable, inducibly HBV producing cell line, which replicates HBV in the absence of doxycycline (Tet-off system). The HepG2 cell line is available from ATCCR under number HB-8065. Transfection of the HepG2 cell line can be as described in Sun and Nassal 2006 Journal of Hepatology 45 (2006) 636-645 “Stable HepG2- and Huh7-based human hepatoma cell lines for efficient regulated expression of infectious hepatitis B virus”.
For the antiviral assay, HBV replication was induced, followed by a treatment with serially diluted compound in 96-well plates. After 3 days of treatment, the antiviral activity was determined by quantification of intracellular HBV DNA using real-time PCR and an HBV specific primer set and probe.

[2] = Cytotoxicity, ATPlite Luminescence Assay; assay type: cell-based, human; settings: human, HepG2 or HepG2.117 cells, 3-days incubation unless marked with *
Experimental: Cytotoxicity of the compounds was tested using HepG2 or HepG2.117 cells, incubated for 3 or 4 days in the presence of compounds. The viability of the cells was assessed using the PERKIN ELMER ATPlite Luminescence Assay System.”

[3] = Human liver microsome stability; assay type: in vitro ADME; settings: human, pooled human liver microsomes, pH 7.4, pooled human liver microsomes 0.5 mg/mL, 1 μM compound, NADPH 1 mM, 37° C., 0-60 min; read-out: HLM Metabolism t1/2
Experimental: Human Liver Microsome Stability t½ (Min) of Compounds of Formula (I) […] All incubations are performed singularly for each compound. NADPH was added to initiate the reaction with the final concentration of 1 mM and the final incubation volume of 400 μL. At 6 time points (0, 5, 10, 20, 40 and 60 min) reactions were stopped by the removal of 50 μL of the incubation mixture into plates containing acetonitrile at a of 1:3 (v:v). The plates were centrifuged at 3000 rpm for 10 min at 4° C. to precipitate the protein. Following protein precipitation, the sample supernatants were combined in cassettes of up to 8 compounds. The internal standard was added (1:1 supernatant to internal standard solution) and samples were analyzed using standard LC-MS conditions. From a plot of ln peak area ratio (compound peak area/internal standard peak area) against time, the gradient of the line is determined. Subsequently, half-life is calculated using the equations below: Elimination rate constant (k)=(−gradient) […]

[4] = Hepatitis B virus, HepG2.117, 72 h

Compound | EC50 [1, 4] | CC50 at 3 days [2] | half-life at 1 μM [3] | EC50 [1]
C[C@@H]1Cc2nn3c(c2CN1C(=O)c1ccc(Cl)c(Cl)c1)C(=O)N([C@H](C)c1ccc([S@](C)(=N)=O)cc1)C[C@H]3C (relative stereo) [Compound 18A, (3R,7R)-2-(3,4-dichlorobenzoyl)-3,7-dimethyl-9-((R*)-1-(4-((R*)—S-methylsulfonimidoyl)phenyl)ethyl)-1,2,3,4,8,9-hexahydropyrido[4′,3′:3,4]pyrazolo[1,5-a]pyrazin-10(7H)-one] | 0.084 µM | > 50 µM | > 3 h | 
C[C@@H]1Cc2nn3c(c2CN1C(=O)c1ccc(Cl)c(C(F)(F)F)c1)C(=O)N([C@H](C)c1ccc([S@](C)(=N)=O)cc1)C[C@H]3C (relative stereo) [Compound 19A, (3R,7R)-2-(4-chloro-3-(trifluoromethyl)benzoyl)-3,7-dimethyl-9-((R*)-1-(4-((R*)—S-methylsulfonimidoyl)phenyl)ethyl)-1,2,3,4,8,9-hexahydropyrido[4′,3′:3,4]pyrazolo[1,5-a]pyrazin-10(7H)-one] | 0.026 µM | > 50 µM | > 3 h | 
CC(c1ccc(C(C)(C)O)cc1)N1C[C@@H](C)n2nc3c(c2C1=O)CN(C(=O)c1ccc(Cl)c(Cl)c1)[C@H](C)C3 (single isomer, unassigned) [Compound 8A, (3R,7R)-2-(3,4-dichlorobenzoyl)-9-((R*)-1-(4-(2-hydroxypropan-2-yl)phenyl)ethyl)-3,7-dimethyl-1,2,3,4,8,9-hexahydropyrido[4′,3′:3,4]pyrazolo[1,5-a]pyrazin-10(7H)-one] |  | 20.1 µM | > 3 h | 0.024 µM
CN=[S@@](C)(=O)c1ccc([C@@H](C)N2C[C@@H](C)n3nc4c(c3C2=O)CN(C(=O)c2ccc(Cl)c(Cl)c2)[C@H](C)C4)cn1 (relative stereo) [Compound 29B, (3R,7R)-2-(3,4-dichlorobenzoyl)-9-((R*)-1-(6-((S*)—N,S-dimethylsulfonimidoyl)pyridin-3-yl)ethyl)-3,7-dimethyl-1,2,3,4,8,9-hexahydropyrido[4′,3′:3,4]pyrazolo[1,5-a]pyrazin-10(7H)-one] | 0.81 µM | > 50 µM | > 3 h | 
C[C@@H]1Cc2nn3c(c2CN1C(=O)c1ccc(Cl)c(C#N)c1)C(=O)N([C@H](C)c1ccc(OC(F)F)cc1)C[C@H]3C (relative stereo) [Compound 1C, 2-Chloro-5-((3R,7R*)-9-((R*)-1-(4-(difluoromethoxy)phenyl)ethyl)-3,7-dimethyl-10-oxo-1,2,3,4,7,8,9,10-octahydropyrido[4′,3′:3,4]pyrazolo[1,5-a]pyrazine-2-carbonyl)benzonitrile] | 0.044 µM | > 50 µM | > 3 h | 
Cc1ncc(C(C)N2C[C@@H](C)n3nc4c(c3C2=O)CN(C(=O)c2ccc(Cl)c(Cl)c2)[C@H](C)C4)cn1 (single isomer, unassigned) [Compound 4A, (3R,7R)-2-(3,4-dichlorobenzoyl)-3,7-dimethyl-9-((R*)-1-(2-methylpyrimidin-5-yl)ethyl)-1,2,3,4,8,9-hexahydropyrido[4′,3′:3,4]pyrazolo[1,5-a]pyrazin-10(7H)-one] |  | > 50 µM | > 3 h | 0.28 µM
CC(c1cnn(C2CC2)c(=O)c1)N1C[C@@H](C)n2nc3c(c2C1=O)CN(C(=O)c1ccc(Cl)c(C(F)(F)F)c1)[C@H](C)C3 (single isomer, unassigned) [Compound 54A, (3R,7R)-2-(4-chloro-3-(trifluoromethyl)benzoyl)-9-((R*)-1-(1-cyclopropyl-6-oxo-1,6-dihydropyridazin-4-yl)ethyl)-3,7-dimethyl-1,2,3,4,8,9-hexahydropyrido[4′,3′: 3,4]pyrazolo[1,5-a]pyrazin-10(7H)-one] |  | > 50 µM | 1.29 h | 0.16 µM
CC(c1ccc(S(N)(=O)=O)cc1)N1C[C@@H](C)n2nc3c(c2C1=O)CN(C(=O)c1ccc(Cl)c(Cl)c1)[C@H](C)C3 (single isomer, unassigned) [Compound 16A, 4-((R*)-1-((3R,7R)-2-(3,4-dichlorobenzoyl)-3,7-dimethyl-10-oxo-1,2,3,4,7,8-hexahydropyrido[4′,3′:3,4]pyrazolo[1,5-a]pyrazin-9(10H)-yl)ethyl)benzenesulfonamide] | 0.061 µM | > 50 µM | > 3 h | 
C[C@@H]1Cc2nn3c(c2CN1C(=O)c1ccc(Cl)c(C(F)(F)F)c1)C(=O)N([C@@H](C)c1ccc([S@@](C)(=N)=O)cc1)C[C@H]3C (relative stereo) [Compound 19D, (3R,7R)-2-(4-chloro-3-(trifluoromethyl)benzoyl)-3,7-dimethyl-9-((S*)-1-(4-((S*)—S-methylsulfonimidoyl)phenyl)ethyl)-1,2,3,4,8,9-hexahydropyrido[4′,3′:3,4]pyrazolo[1,5-a]pyrazin-10(7H)-one] | 0.011 µM | > 50 µM | > 3 h | 
CC(c1ccc(C#N)cc1)N1C[C@@H](C)n2nc3c(c2C1=O)CN(C(=O)c1ccc(Cl)c(Cl)c1)[C@H](C)C3 (single isomer, unassigned) [Compound 66A, 4-((R*)-1-((3R,7R)-2-(3,4-dichlorobenzoyl)-3,7-dimethyl-10-oxo-1,3,4,7,8,10-hexahydropyrido[4′,3′:3,4]pyrazolo[1,5-a]pyrazin-9(2H)-yl)ethyl)benzonitrile] |  | > 26.2 µM | > 3 h | 0.037 µM
CC(c1ccc(NS(C)(=O)=O)cn1)N1C[C@@H](C)n2nc3c(c2C1=O)CN(C(=O)c1ccc(Cl)c(C(F)(F)F)c1)[C@H](C)C3 (single isomer, unassigned) [Compound 33A, N-(6-((R*)-1-((3R,7R)-2-(4-chloro-3-(trifluoromethyl)benzoyl)-3,7-dimethyl-10-oxo-1,3,4,7,8,10-hexahydropyrido[4′,3′:3,4]pyrazolo[1,5-a]pyrazin-9(2H)-yl)ethyl)pyridin-3-yl)methanesulfonamide] | 0.036 µM | > 50 µM | > 3 h | 
CC(c1cnc(N2CCOC[C@@H]2C)nc1)N1C[C@@H](C)n2nc3c(c2C1=O)CN(C(=O)c1ccc(Cl)c(C(F)(F)F)c1)[C@H](C)C3 (single isomer, unassigned) [Compound 38A, (3R,7R)-2-(4-chloro-3-(trifluoromethyl)benzoyl)-3,7-dimethyl-9-((R*)-1-(2-((S)-3-methylmorpholino)pyrimidin-5-yl)ethyl)-1,2,3,4,8,9-hexahydropyrido[4′,3′:3,4]pyrazolo[1,5-a]pyrazin-10(7H)-one] |  | 47 µM | 1.01 h | 0.06 µM
CC(c1cnc(C(F)(F)F)nc1)N1C[C@@H](C)n2nc3c(c2C1=O)CN(C(=O)c1ccc(Cl)c(Cl)c1)[C@H](C)C3 (single isomer, unassigned) [Compound 34A, (3R,7R)-2-(3,4-dichlorobenzoyl)-3,7-dimethyl-9-((R*)-1-(2-(trifluoromethyl)pyrimidin-5-yl)ethyl)-1,2,3,4,8,9-hexahydropyrido[4′,3′:3,4]pyrazolo[1,5-a]pyrazin-10(7H)-one] |  | > 50 µM | > 3 h | 0.63 µM
CC(c1cnn(C(C)C)c(=O)c1)N1C[C@@H](C)n2nc3c(c2C1=O)CN(C(=O)c1ccc(Cl)c(C(F)(F)F)c1)[C@H](C)C3 (single isomer, unassigned) [Compound 53A, (3R,7R)-2-(4-chloro-3-(trifluoromethyl)benzoyl)-9-((R*)-1-(1-isopropyl-6-oxo-1,6-dihydropyridazin-4-yl)ethyl)-3,7-dimethyl-1,2,3,4,8,9-hexahydropyrido[4′,3′:3,4]pyrazolo[1,5-a]pyrazin-10(7H)-one] |  | > 50 µM | 1.85 h | 0.24 µM
CC(c1ccc(C(C)(C)O)nc1)N1C[C@@H](C)n2nc3c(c2C1=O)CN(C(=O)c1ccc(Cl)c(Cl)c1)[C@H](C)C3 (single isomer, unassigned) [Compound 2A, (3R,7R)-2-(3,4-dichlorobenzoyl)-9-((R*)-1-(6-(2-hydroxypropan-2-yl)pyridin-3-yl)ethyl)-3,7-dimethyl-1,2,3,4,8,9-hexahydropyrido[4′,3′:3,4]pyrazolo[1,5-a]pyrazin-10(7H)-one] |  | > 50 µM | > 3 h | 0.099 µM
